Results on 23 molecules are retold here after patent publication US8426429B2, “2-amino-quinazoline derivatives useful as inhibitors of β-secretase (BACE)” (Jansssen Pharmaceutica N.V., priority 2004, dated 2013).

Holding throughout (type): biochemical
Assay [1] has as its target T1, β-secretase (BACE) (Homo sapiens, UniProt P56817).
T1 construct: purchased Panvera
The experiment in a line: BACE % Inhibition Assay ((Aedens)-[…]-(Dabcyl K-amide) substrate). The note with it: % error ±10%. Here is the method:
The substrate stock solution was prepared in DMSO as a 10 mg/mL solution. The substrate working solution was prepared by diluting the 10 mg/mL stock solution with substrate assay buffer to a final concentration of […]. The β-secretase (BACE) working solution was prepared by diluting a 0.83 mg/mL BACE stock solution with enzyme assay buffer to a final concentration of 4 μg/mL.
Test compounds were dissolved in DMSO to 10 mM.
The screening procedure for this assay was as follows: 15 μL of BACE working solution was pipetted into each well of a 96-well plate. To each well was then pipetted 2 μL of test compound at the selected concentration. Test compound and BACE were then mixed with a pipettor and incubated for 20 min at room temperature. To each well was then added 10 μL of the substrate working solution. The plates were then incubated for 1 hour at room temperature.
The procedure for the blank was as follows. 15 μL of assay buffer was pipetted into each well to be used as a blank control. To each well was then added 2 μL of vehicle and 10 μL of substrate working solution. The plates were then incubated for 1 hour at room temperature.
The procedure for the positive control was as follows: 15 μl of BACE working solution was pipetted into each well to be used as a positive control. To each well was then pipetted 2 μL of vehicle. Vehicle and BACE were then mixed with a pipettor and incubated for 20 min at room temperature. To each well was then added 10 μL of the substrate working solution. The plates were the incubated for 1 hour at room temperature.
For test compounds, % inhibition was determined at each concentration as follows: […]

The target of assay [2] is T1, β-secretase (BACE). The experiment in a line: BACE FS1 % Inhibition Assay. As to conditions: for inhibition at 0.3 µM / inhibition at 1 µM / inhibition at 3 µM: read-out: % Inhibition (FS). Put shortly:
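Percent inhibition per compound concentration was referenced to vehicle-treated enzyme and no-enzyme wells. Enzyme at a 4 μg/mL working stock plus compound was mixed for 20 min at room temperature before the FS1 substrate (300 μg/mL working stock) was added for a 1 h room-temperature reaction.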

Assay [3] deals with T1, β-secretase (BACE). The assay can be described thus: BACE Assay-2 (FS1 substrate, IC50 and Ki). The note with it: procedure of Example 159, FS1 substrate. As to the method:
The FS1-substrate stock solution was prepared in DMSO as a 10 mg/mL solution. The FS1-substrate working solution was prepared by diluting the 10 mg/mL stock solution with substrate assay buffer to a final concentration of […]. The β-secretase (BACE) working solution was prepared by diluting a 0.83 mg/mL BACE stock solution with enzyme assay buffer to a final concentration of 4 μg/mL.
Test compounds were dissolved in DMSO at 10 mM.
The procedure for this assay was as follows: 15 μL of BACE working solution was pipetted into each well of a 96-well plate. To each well was then pipetted 2 μL of test compound at the selected concentration. Test compound and BACE were then mixed with a pipettor and incubated for 20 min at room temperature. To each well was then added 10 μL of the FS1 substrate working solution.
The procedure for the positive control was as follows:15 μL of BACE working solution was pipetted into each well to be used as a positive control. To each well was then pipetted 2 μL of vehicle. Vehicle and BACE were then mixed with a pipettor and incubated for 20 min at room temperature. To each well was then added 10 μL of the FS1 substrate working solution.
For test compounds, measured at multiple concentrations, the measured T0 and T60 values were used to calculate an IC50 value using Graphpad Software (or PIR). For test compounds, Ki inhibition was determined as follows: For each compound concentration and positive control, rate of cleavage of substrate (Vi, where i=compound concentration in μM) was determined as Δ Fluorescence/Δ time (min). Cleavage rates (Vi) were plotted as a function of inhibitor concentration in μM [I]. The Ki was then determined by fitting the following equation to the graph of [I] vs Vi Y=aVmax/(50+24*(1+X/Ki)),

T1 sequence (P56817 46-501): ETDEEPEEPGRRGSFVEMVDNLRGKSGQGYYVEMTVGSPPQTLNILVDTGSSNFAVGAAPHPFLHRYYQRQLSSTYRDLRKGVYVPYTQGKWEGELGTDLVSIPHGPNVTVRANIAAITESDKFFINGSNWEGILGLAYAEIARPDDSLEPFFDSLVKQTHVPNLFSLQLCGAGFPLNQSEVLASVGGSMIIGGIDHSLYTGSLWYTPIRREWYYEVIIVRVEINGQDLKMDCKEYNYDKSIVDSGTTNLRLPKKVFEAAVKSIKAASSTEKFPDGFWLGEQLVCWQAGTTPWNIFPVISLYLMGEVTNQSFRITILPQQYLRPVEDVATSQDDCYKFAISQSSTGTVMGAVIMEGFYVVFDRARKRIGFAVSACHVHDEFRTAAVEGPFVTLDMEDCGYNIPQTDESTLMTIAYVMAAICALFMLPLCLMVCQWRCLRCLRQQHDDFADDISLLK

Consider `CCCC(CCCC(=O)N(CC)C1CCCCC1)N1Cc2cc(Oc3ccccc3)ccc2N=C1N` (stereo not shown) [Compound 105], for which the “% Inhibition” value at β-secretase (BACE) [1] (3 μM compound) and at β-secretase (BACE) [1] (10 μM compound) was <30% each time. Moreover, the “% Inhibition (FS)” value on β-secretase (BACE) [2] (0.3 μM test compound), at β-secretase (BACE) [2] (1 μM test compound) and at β-secretase (BACE) [2] (3 μM test compound) was <30% throughout.
In the case of `CC(C)(C)C(=O)NCC(C1CCCCC1)N1Cc2cc(Oc3ccccc3)ccc2N=C1N` (stereo not shown) [Compound 317], the “% Inhibition” value was <30% on β-secretase (BACE) [1] (0.3 μM compound) and 66% on β-secretase (BACE) [1] (1 μM compound).
Consider `CN(C(=O)c1cccc(CN2Cc3cc(-c4ccccc4Oc4ccccc4)ccc3N=C2N)c1)C1CCCCC1` [Compound 326], for which, at β-secretase (BACE) [3], the Ki was found to be 0.42 µM. The inhibition at 0.3 µM on β-secretase (BACE) [2] (0.3 μM test compound) was < 30%. At β-secretase (BACE) [2] (1 μM test compound), the inhibition at 1 µM came out at 35%. Also, the inhibition at 3 µM on β-secretase (BACE) [2] (3 μM test compound) was found to be 79%.
For the molecule `NC1=Nc2ccc(Oc3ccccc3)cc2CN1Cc1cccc(CNC(=O)C23CC4CC(CC(C4)C2)C3)c1` [Compound 336], the “% Inhibition” value at β-secretase (BACE) [1] (0.3 μM compound), at β-secretase (BACE) [1] (1 μM compound) and at β-secretase (BACE) [1] (3 μM compound) was <30% each time.
Regarding `NC1=Nc2ccc(Oc3ccccc3)cc2CN1Cc1cccc(CNC(=O)C(c2ccccc2)c2ccccc2)c1` [Compound 337], the “% Inhibition” value on β-secretase (BACE) [1] (0.3 μM compound), on β-secretase (BACE) [1] (1 μM compound) and at β-secretase (BACE) [1] (3 μM compound) was <30% each time.
As to `CCCC(CCC)C(=O)NCc1cccc(CN2Cc3cc(Oc4ccccc4)ccc3N=C2N)c1` [Compound 338], the “% Inhibition” value on β-secretase (BACE) [1] (0.3 μM compound), at β-secretase (BACE) [1] (1 μM compound) and at β-secretase (BACE) [1] (3 μM compound) was <30% in each case.
`CCCCC(CC)C(=O)NCc1cccc(CN2Cc3cc(Oc4ccccc4)ccc3N=C2N)c1` (stereo not shown) [Compound 339]: the “% Inhibition” value on β-secretase (BACE) [1] (0.3 μM compound), on β-secretase (BACE) [1] (1 μM compound) and at β-secretase (BACE) [1] (3 μM compound) was <30% throughout.
`CCCCC(CC)C(=O)NCC(c1ccccc1)N1Cc2cc(Oc3ccccc3)ccc2N=C1N` (stereo not shown) [Compound 341]: the entries for the “% Inhibition” value at β-secretase (BACE) [1] (0.3 μM compound), at β-secretase (BACE) [1] (1 μM compound) and at β-secretase (BACE) [1] (3 μM compound) were <30%, <30% and 72%, respectively.
Regarding `NC1=Nc2ccc(Oc3ccccc3)cc2CN1C(CNC(=O)C1CCCCC1)c1ccccc1` (stereo not shown) [Compound 342], the “% Inhibition” value on β-secretase (BACE) [1] (0.3 μM compound) was 50%; at β-secretase (BACE) [1] (1 μM compound) it was 93%; at β-secretase (BACE) [1] (3 μM compound), 119%.
In the case of `CCCC(CNC(=O)C1CCCCC1)N1Cc2cc(Oc3ccccc3)ccc2N=C1N` (stereo not shown) [Compound 343], the “% Inhibition” value on β-secretase (BACE) [1] (0.3 μM compound) is 81%; on β-secretase (BACE) [1] (1 μM compound) it was 101%; at β-secretase (BACE) [1] (3 μM compound), 118%.
Taken in the same sequence, the figures for `NC1=Nc2ccc(Oc3ccccc3)cc2CN1C(CNC(=O)CCC1CCCC1)C1CCCCC1` (stereo not shown) [Compound 366] were 64%, 113% and 119%.
Consider `CC(C)(C)OC(=O)NCC(C1CCCCC1)N1Cc2cc(Oc3ccccc3)ccc2N=C1N` (stereo not shown) [Compound 367], for which the “% Inhibition” value at β-secretase (BACE) [1] (0.3 μM compound) was <30%; on β-secretase (BACE) [1] (1 μM compound), 80%; at β-secretase (BACE) [1] (3 μM compound) it was 111%.
For the molecule `CC(C)CCC(=O)NCC(C1CCCCC1)N1Cc2cc(Oc3ccccc3)ccc2N=C1N` (stereo not shown) [Compound 388], the Ki at β-secretase (BACE) [3] was 0.063 µM. Further, the inhibition at 0.3 µM against β-secretase (BACE) [1] (0.3 μM compound) was found to be 107%. Moreover, the inhibition at 1 µM against β-secretase (BACE) [1] (1 μM compound) is 119%. For the same molecule, the inhibition at 3 µM at β-secretase (BACE) [1] (3 μM compound) stood at 119%.
Turning to `NC1=Nc2ccc(Oc3ccccc3)cc2CN1C(CNC(=O)C1(c2ccc(Cl)cc2)CCCC1)C1CCCCC1` (stereo not shown) [Compound 390], the “% Inhibition” value is given as <30% at β-secretase (BACE) [1] (0.3 μM compound) and 50% at β-secretase (BACE) [1] (1 μM compound).
Turning to `NC1=Nc2ccc(Oc3ccccc3)cc2CN1C(CCNC(=O)C1CCCC1)C1CCCCC1` (stereo not shown) [Compound 392], the “% Inhibition” value at β-secretase (BACE) [1] (0.3 μM compound) is listed as 75%; on β-secretase (BACE) [1] (1 μM compound), 116%; at β-secretase (BACE) [1] (3 μM compound), 120%.
`CC(C)C(CNC(=O)C12CC3CC(CC(C3)C1)C2)N1Cc2cc(Oc3ccccc3)ccc2N=C1N` (stereo not shown) [Compound 562]: the Ki on β-secretase (BACE) [3] came to 0.026 µM. For the same molecule, at β-secretase (BACE) [2] (0.3 μM test compound), the inhibition at 0.3 µM came out at 106%. The inhibition at 1 µM on β-secretase (BACE) [2] (1 μM test compound) amounted to 118%. The inhibition at 3 µM at β-secretase (BACE) [2] (3 μM test compound) turned out to be 128%.
`NC1=Nc2ccc(-c3ccccc3)cc2CN1CCNC(=O)Cc1ccccc1` [Compound 595] returned a Ki on β-secretase (BACE) [3] of 0.33 µM. In addition, at β-secretase (BACE) [2] (0.3 μM test compound), the inhibition at 0.3 µM was 32%. The inhibition at 1 µM at β-secretase (BACE) [2] (1 μM test compound) turned out to be 70%. Moreover, on β-secretase (BACE) [2] (3 μM test compound), the inhibition at 3 µM turned out to be 104%.
`CN(C(=O)CC[C@@H](C1CCCCC1)N1Cc2cc(Oc3ccccc3)ccc2N=C1N)C1CCC2(CC1)OCCO2` [Compound 710]: at β-secretase (BACE) [3], the inhibitory constant (Ki) is 0.3 µM. At β-secretase (BACE) [2] (0.3 μM compound, FS1 substrate), the inhibition at 0.3 µM is < 30%. For the same molecule, the inhibition at 1 µM on β-secretase (BACE) [2] (1 μM compound, FS1 substrate) came to 68%. In addition, the inhibition at 3 µM at β-secretase (BACE) [2] (3 μM compound, FS1 substrate) is 126%.
The molecule `CN(C(=O)CC[C@@H](C1CCCCC1)N1Cc2cc(Oc3ccccc3)ccc2N=C1N)C1CCC(=O)CC1` [Compound 711] returned a Ki at β-secretase (BACE) [3] of 0.45 µM. The inhibition at 0.3 µM at β-secretase (BACE) [2] (0.3 μM compound, FS1 substrate) was < 30%. Further, on β-secretase (BACE) [2] (1 μM compound, FS1 substrate), the inhibition at 1 µM was 43%. In addition, the inhibition at 3 µM on β-secretase (BACE) [2] (3 μM compound, FS1 substrate) was 113%.
For `CC(C)N1CCC(N(C)C(=O)CC[C@@H](C2CCCCC2)N2Cc3cc(Oc4ccccc4)ccc3N=C2N)CC1` [Compound 728] the same measures were 0.38 µM, 43%, 58% and 97%.
In the case of `COC(=O)[C@H]1CC[C@H](NC(=O)CC[C@@H](C2CCOCC2)N2Cc3cc(Oc4ccccc4)ccc3N=C2N)CC1` [Compound 747], the Ki on β-secretase (BACE) [3] was found to be 0.088 µM. Further, the inhibition at 0.3 µM on β-secretase (BACE) [2] (0.3 μM compound, FS1 substrate) worked out at 41%. Also, the inhibition at 1 µM at β-secretase (BACE) [2] (1 μM compound, FS1 substrate) stood at 74%. Moreover, the inhibition at 3 µM at β-secretase (BACE) [2] (3 μM compound, FS1 substrate) worked out at 104%.
`CN(CCCCC(=O)O)C(=O)CC[C@@H](C1CCCCC1)N1Cc2cc(Oc3ccccc3)ccc2N=C1N` [Compound 752] gave a Ki at β-secretase (BACE) [3] of 0.221 µM. For the same molecule, the inhibition at 0.3 µM on β-secretase (BACE) [2] (0.3 μM compound, FS1 substrate) was 45%. Also, the inhibition at 1 µM at β-secretase (BACE) [2] (1 μM compound, FS1 substrate) came to 81%. In addition, the inhibition at 3 µM on β-secretase (BACE) [2] (3 μM compound, FS1 substrate) turned out to be 109%.
Turning to `CN(C(=O)CCC(C1CCCCC1)N1Cc2cc(Oc3ccccc3)ccc2N=C1N)C(COCc1ccccc1)C(=O)O` (stereo not shown) [Compound 781], affinity at β-secretase (BACE) [3] was put at a Ki of 0.038 µM. In addition, the inhibition at 0.3 µM at β-secretase (BACE) [2] (0.3 μM compound, FS1 substrate) came to 106%. Besides, the inhibition at 1 µM at β-secretase (BACE) [2] (1 μM compound, FS1 substrate) amounted to 109%. Moreover, the inhibition at 3 µM at β-secretase (BACE) [2] (3 μM compound, FS1 substrate) was determined as 121%.
